{
  "source": "patent US12679802B2",
  "about": "“Malonamides and their use as herbicides” (BASF SE, priority 2021, dated 2026)",
  "key": {"APESV": {"system": "APESV", "assay": "greenhouse herbicidal test, pre-emergence treatment", "assay_type": "in vivo, Apera spica-venti", "conditions": "pre-emergence method, scale from 0 to 100", "text": "(§1) The seeds of the test plants were sown separately for each species. For the pre-emergence treatment, the active ingredients, which had been suspended or emulsified in water, were applied directly after sowing by means of finely distributing nozzles. The containers were irrigated gently to promote germination and growth and subsequently covered with transparent plastic hoods until the test plants had rooted. This cover caused uniform germination of the test plants, unless this had been impaired by the active ingredients. For the post-emergence treatment, the test plants were first grown to a height of 3 to 15 cm, depending on the plant habit, and only then treated with the active ingredients which had been suspended or emulsified in water. For this purpose, the test plants were either sown directly and grown in the same containers, or they were first grown separately as seedlings and transplanted into the test containers a few days prior to treatment. Depending on the species, the test plants were kept at 10-25° C. or 20-35° C., respectively. The test period extended over 2 to 4 weeks. During this time, the test plants were tended, and their response to the individual treatments was evaluated. Evaluation was carried out using a scale from 0 to 100. […]"}, "AMARE": {"system": "AMARE", "assay": "greenhouse herbicidal test, post-emergence treatment", "assay_type": "in vivo, Amaranthus retroflexus", "conditions": "post-emergence method, application rate 0.500 kg/ha; scale from 0 to 100", "text": "as §1"}, "AVEFA": {"system": "AVEFA", "assay": "greenhouse herbicidal test, post-emergence treatment", "assay_type": "in vivo, Avena fatua", "conditions": "post-emergence method, scale from 0 to 100", "text": "The seeds of the test plants were sown separately for each species. For the pre-emergence treatment, the active ingredients, which had been suspended or emulsified in water, were applied directly after sowing by means of finely distributing nozzles. The containers were irrigated gently to promote germination and growth and subsequently covered with transparent plastic hoods until the test plants had rooted. This cover caused uniform germination of the test plants, unless this had been impaired by the active ingredients. For the post-emergence treatment, the test plants were first grown to a height of 3 to 15 cm, depending on the plant habit, and only then treated with the active ingredients which had been suspended or emulsified in water. For this purpose, the test plants were either sown directly and grown in the same containers, or they were first grown separately as seedlings and transplanted into the test containers a few days prior to treatment. Depending on the species, the test plants were kept at 10-25° C. or 20-35° C., respectively. The test period extended over 2 to 4 weeks. During this time, the test plants were tended, and their response to the individual treatments was evaluated. Evaluation was carried out using a scale from 0 to 100. 100 means no emergence of the test plants, or complete destruction of at least the aerial moieties, and 0 means no damage, or normal course of growth. A good herbicidal activity is given at values of 65 to 90 and a very good herbicidal activity is given at values of 90 to 100. The test plants used in the greenhouse experiments were of the following species: [table]"}, "ECHCG [1]": {"system": "ECHCG", "assay": "greenhouse herbicidal test, pre-emergence treatment", "assay_type": "in vivo, Echinocloa crus-galli", "conditions": "pre-emergence method, scale from 0 to 100", "text": "as §1"}, "ALOMY": {"system": "ALOMY", "assay": "greenhouse herbicidal test, post-emergence treatment", "assay_type": "in vivo, Alopercurus myosuroides", "conditions": "post-emergence method, scale from 0 to 100", "text": "as §1"}, "ABUTH": {"system": "ABUTH", "assay": "greenhouse herbicidal test, post-emergence treatment", "assay_type": "in vivo, Abutilon theophrasti", "conditions": "post-emergence method, application rate 0.250 kg/ha; scale from 0 to 100", "text": "as §1"}, "SETVI": {"system": "SETVI", "assay": "greenhouse herbicidal test, post-emergence treatment", "assay_type": "in vivo, Setaria viridis", "conditions": "post-emergence method, application rate 1.000 kg/ha; scale from 0 to 100", "text": "as §1"}, "ECHCG [2]": {"system": "ECHCG", "assay": "greenhouse herbicidal test, post-emergence treatment", "assay_type": "in vivo, Echinocloa crus-galli", "conditions": "post-emergence method, application rate 1.000 kg/ha; scale from 0 to 100", "text": "as §1"}},
  "data": [
    {"smiles": "CC(CC(=O)OC(C)C)NC(=O)C(C)(F)C(=O)Nc1cc(F)cc(Cl)c1", "note": "(stereo not shown) [I.16]", "values": [
      {"measurement": "herbicidal activity against APESV", "setting": "APESV; application rate 0.250 kg/ha", "value": "good (A good herbicidal activity is given at values of 65 to 90)"}
    ]},
    {"smiles": "COC(=O)CC(C)NC(=O)C(F)(C(=O)Nc1cc(Cl)cc(Cl)c1)C(C)O", "note": "(stereo not shown) [I.6]", "values": [
      {"measurement": "herbicidal activity against AMARE", "setting": "AMARE", "value": "very good (a very good herbicidal activity is given at values of 90 to 100)"}
    ]},
    {"smiles": "COC(=O)CCCNC(=O)C(F)(F)C(=O)Nc1cc(Cl)cc(Cl)c1", "note": "[I.1, methyl 4-[[3-(3,5-dichloroanilino)-2,2-difluoro-3-oxo-propanoyl]amino]butanoate]", "values": [
      {"measurement": "herbicidal activity against AVEFA", "setting": "AVEFA; application rate 0.500 kg/ha", "value": "good (A good herbicidal activity is given at values of 65 to 90)"}
    ]},
    {"smiles": "COC(=O)C[C@H](C)NC(=O)C(F)C(=O)Nc1cc(Cl)cc(Cl)c1", "note": "(stereo partly drawn) [I.5, methyl (3S)-3-[[3-(3,5-dichloroanilino)-2-fluoro-3-oxo-propanoyl]amino]butanoate]", "values": [
      {"measurement": "herbicidal activity against AVEFA", "setting": "AVEFA; application rate 1.000 kg/ha", "value": "good (A good herbicidal activity is given at values of 65 to 90)"},
      {"measurement": "herbicidal activity against ECHCG", "setting": "ECHCG [1]; application rate 1.000 kg/ha", "value": "good (A good herbicidal activity is given at values of 65 to 90)"},
      {"measurement": "herbicidal activity against ALOMY", "setting": "ALOMY; application rate 1.000 kg/ha", "value": "very good (a very good herbicidal activity is given at values of 90 to 100)"}
    ]},
    {"smiles": "COC(=O)[C@@H]1CCC(NC(=O)C(F)(F)C(=O)Nc2cc(Cl)cc(Cl)c2)C1", "note": "(stereo partly drawn) [I.3, methyl (1R)-3-[[3-(3,5-dichloroanilino)-2,2-difluoro-3-oxo-propanoyl]amino]cyclopentanecarboxylate]", "values": [
      {"measurement": "herbicidal activity against ECHCG", "setting": "ECHCG [1]; application rate 0.250 kg/ha", "value": "good (A good herbicidal activity is given at values of 65 to 90)"},
      {"measurement": "herbicidal activity against ALOMY", "setting": "ALOMY; application rate 0.250 kg/ha", "value": "very good (a very good herbicidal activity is given at values of 90 to 100)"},
      {"measurement": "herbicidal activity against ABUTH", "setting": "ABUTH", "value": "good (A good herbicidal activity is given at values of 65 to 90)"}
    ]},
    {"smiles": "COC(=O)CC(C)NC(=O)C(F)(Br)C(=O)Nc1cc(Cl)cc(Cl)c1", "note": "(stereo not shown) [I.12]", "values": [
      {"measurement": "herbicidal activity against AVEFA", "setting": "AVEFA; application rate 1.000 kg/ha", "value": "very good (a very good herbicidal activity is given at values of 90 to 100)"},
      {"measurement": "herbicidal activity against SETVI", "setting": "SETVI", "value": "very good (a very good herbicidal activity is given at values of 90 to 100)"},
      {"measurement": "herbicidal activity against ECHCG", "setting": "ECHCG [2]", "value": "very good (a very good herbicidal activity is given at values of 90 to 100)"}
    ]},
    {"smiles": "COC(=O)C[C@H](C)NC(=O)C(F)(F)C(=O)Nc1cc(Cl)cc(Cl)c1", "note": "[I.2, methyl (3S)-3-[[3-(3,5-dichloroanilino)-2,2-difluoro-3-oxo-propanoyl]amino]butanoate]", "values": [
      {"measurement": "herbicidal activity against APESV", "setting": "APESV; application rate 0.500 kg/ha", "value": "good (A good herbicidal activity is given at values of 65 to 90)"}
    ]}
  ]
}
